From patent US20160262390A1, “FIELD APPLICATION OF SUGARS TO INCREASE CROP YIELD” (Minn-Dak Farmers Cooperative, priority 2015, published 2016)

How the values were obtained:
sugarbeets = assay: Pre-planting sugar application on sugarbeets, Foxhome; format: in vivo, sugarbeet; conditions: for Recoverable Sugar Yield / Recoverable Sugar Yield Increase Compared to Check Average / Sugarbeet Yield: MN
Protocol: (§1) The field trials were conducted simultaneously in two different planting locations for each of the crops. One location was near the community of Foxhome in Wilkin County, Minnesota (hereafter referred to as “Foxhome”) while the second location was near the community of Hickson in Cass County, North Dakota (hereafter referred to as “Hickson”). The Foxhome and Hickson locations are on opposite sides of the Red River along the border of Minnesota and North Dakota and separated by a distance exceeding 40 miles. Generally, the Foxhome location has heavier clay loam soil conditions while Hickson has sandy loam soil conditions.
(§2) At each of the Foxhome and Hickson locations, a total of thirty two (32) treatments were conducted for each crop (sugarbeets, soybeans, corn, wheat). Each treatment was replicated four times arranged in a Randomized Complete Block (RCB) Design in the same field. Each replication consisted of a plot measuring twenty five (25) feet in length and eleven (11) feet in width. In selecting the particular seed types for evaluation, popular commercial varieties to the region were utilized. For the row crops (sugarbeets, soybeans, corn) each replication included a width of six (6) rows with twenty two (22) inch row spacing and having a row length of twenty five (25) feet. The wheat was planted in accordance with standard commercial practices. To reduce/eliminate any treatment impacts between adjacent plots for the crops, only the four (4) interior rows of each plot were treated and evaluated for row crops, while for wheat, only the interior 7.33 feet of each plot were treated and evaluated. With the exception of the treatment program applied to the individual plots, which will be discussed below, conventional commercial growing practices for each planting location were otherwise followed during the field trials.
(§3) The treatment regimen at each location for each of the tested crops included two (2) untreated treatments (Treatments 31 and 32) in which no sugar was applied and constitute the control elements. […] Six (6) treatments (Treatments 13-18) included the liquid application of high fructose corn syrup (hereafter “HFCS”) at varying rates. Six treatments (Treatments 19-24) included the liquid application of dextrose (hereafter “LIQDEX”) at varying rates. Six (6) treatments (Treatments 25-30) included the application of powdered cellulose (hereafter “POWCEL”) at varying rates. For the sugar applied in a solid form, granulated or powdered, field application was conducted via conventional broadcast spreading. For the sugar applied in a liquid form, a liquid concentrate was mixed and diluted with water in a tank and a conventional sprayer was configured such that the liquid was sprayed so as to have the same sugar equivalent (measured in pounds/per acre) as the sugar in solid form. Regardless of whether the sugar was applied as a solid or liquid, the sugar was applied directly onto the soil before spring tillage, lightly worked into the ground and followed by planting of the crop seed in the treated ground. A summary of application rates for each plot treatments are contained in Table 7 below and were used consistently with each of the crops (sugarbeets, soybeans, corn, wheat).
To test the impact of pre-planting application rates and sugar source on sugarbeets, identical field trials using Crystal® brand ACH 260 sugarbeet seed were conducted at the Foxhome and Hickson locations. Planting of the sugarbeet seed and harvest of the sugarbeets were conducted on as close to the same dates as practical so as to have essentially the same length growing season.

soybeans [1] = assay: Pre-planting sugar application on soybeans, Foxhome; format: in vivo, soybean; conditions: for Yield / Yield Increase Compared to Check: MN
Protocol: as §1
as §2, with “trials. While the individual plots at the same location, Hickson or Foxhome, experienced essentially the same growing conditions throughout the season, there were various differences associated with localized precipitation, general growing conditions, soil classification and the like, which contributed to performance differences between the Hickson and Foxhome locations.” for “trials.”
as §3
(§4) To test the impact of pre-planting application rates and sugar source on soybeans, identical field trials using Syngenta brand soybean seed were conducted at the Foxhome and Hickson locations. Planting of the soybean seed and harvest of the soybeans were conducted on approximately the same dates so as to have essentially the same growing season. […]

soybeans [2] = assay: Pre-planting sugar application on soybeans, Hickson; format: in vivo, soybean; conditions: for Yield / Yield Increase Compared to Check Average: ND
Protocol: as §1
as §2, with “trials. While the individual plots at the same location, Hickson or Foxhome, experienced essentially the same growing conditions throughout the season, there were various differences associated with localized precipitation, general growing conditions, soil classification and the like, which contributed to performance differences between the Hickson and Foxhome locations.” for “trials.”
as §3, §4

corn = assay: Pre-planting sugar application on corn, Foxhome; format: in vivo; conditions: for Yield / Yield Increase Compared to Check Average: MN
Protocol: as §1
as §2, with “trials. While the individual plots at the same location, Hickson or Foxhome, experienced essentially the same growing conditions throughout the season, there were various differences associated with localized precipitation, general growing conditions, soil classification and the like, which contributed to performance differences between the Hickson and Foxhome locations.” for “trials.”
as §3
To test the impact of pre-planting application rates and sugar source on corn, identical field trials using Peterson Farms brand corn seed were conducted at the Foxhome and Hickson locations. Planting of the corn seed and harvest of the corn were conducted on the same dates so as to have essentially the same growing season. […]

[3] = six rates (25-250 pounds/Acre) per sugar, thirty in all

**Q.** Which “Recoverable Sugar Yield” value (sugarbeets; pre-planting 25 pounds/Acre) does the source give for `OC[C@H]1O[C@@](CO)(O[C@H]2O[C@H](CO)[C@@H](O)[C@H](O)[C@H]2O)[C@@H](O)[C@@H]1O` [LIQSUC, sucrose] here?
**A.** 8629 Pounds/Acre

**Q.** What about the “Recoverable Sugar Yield Increase Compared to Check Average” value (sugarbeets; pre-planting 25 pounds/Acre) of the same compound?
**A.** 0.61%

**Q.** What about the “Sugarbeet Yield” value (sugarbeets; pre-planting 25 pounds/Acre) of the same compound?
**A.** 32.17 Tons/Acre

**Q.** What about the “Recoverable Sugar Yield” value (sugarbeets; pre-planting 50 pounds/Acre) of the same compound?
**A.** 8627 Pounds/Acre

**Q.** What about the “Recoverable Sugar Yield Increase Compared to Check Average” value (sugarbeets; pre-planting 50 pounds/Acre) of the same compound?
**A.** 0.58%

**Q.** And the “Sugarbeet Yield” value (sugarbeets; pre-planting 50 pounds/Acre)?
**A.** 31.21 Tons/Acre

**Q.** And the “Recoverable Sugar Yield” value (sugarbeets; pre-planting 100 pounds/Acre)?
**A.** 8592 Pounds/Acre

**Q.** And the “Recoverable Sugar Yield Increase Compared to Check Average” value (sugarbeets; pre-planting 100 pounds/Acre)?
**A.** 0.17%

**Q.** What about the “Sugarbeet Yield” value (sugarbeets; pre-planting 100 pounds/Acre) of the same compound?
**A.** 31.79 Tons/Acre

**Q.** And the “Recoverable Sugar Yield” value (sugarbeets; pre-planting 150 pounds/Acre)?
**A.** 8646 Pounds/Acre

**Q.** What about the “Recoverable Sugar Yield Increase Compared to Check Average” value (sugarbeets; pre-planting 150 pounds/Acre) of the same compound?
**A.** 0.80%

**Q.** And the “Sugarbeet Yield” value (sugarbeets; pre-planting 150 pounds/Acre)?
**A.** 30.26 Tons/Acre

**Q.** And the “Recoverable Sugar Yield” value (sugarbeets; pre-planting 200 pounds/Acre)?
**A.** 8473 Pounds/Acre

**Q.** What about the “Recoverable Sugar Yield Increase Compared to Check Average” value (sugarbeets; pre-planting 200 pounds/Acre) of the same compound?
**A.** −1.21%

**Q.** What about the “Sugarbeet Yield” value (sugarbeets; pre-planting 200 pounds/Acre) of the same compound?
**A.** 30.23 Tons/Acre

**Q.** And the “Recoverable Sugar Yield” value (sugarbeets; pre-planting 250 pounds/Acre)?
**A.** 8424 Pounds/Acre

**Q.** And the “Sugarbeet Yield” value (sugarbeets; pre-planting 250 pounds/Acre)?
**A.** 31.04 Tons/Acre

**Q.** What about the “number of treatments showing yield improvement compared to check average” value (sugarbeets; [3]) of the same compound?
**A.** four of the six

**Q.** And the Yield (soybeans [1]; pre-planting 25 pounds/Acre)?
**A.** 67.82 Bushels/Acre

**Q.** And the “Yield Increase Compared to Check” value (soybeans [1]; pre-planting 25 pounds/Acre)?
**A.** −1.05%

**Q.** What about the Yield (soybeans [1]; pre-planting 50 pounds/Acre) of the same compound?
**A.** 72.08 Bushels/Acre

**Q.** And the “Yield Increase Compared to Check” value (soybeans [1]; pre-planting 50 pounds/Acre)?
**A.** 5.16%

**Q.** And the Yield (soybeans [1]; pre-planting 100 pounds/Acre)?
**A.** 71.28 Bushels/Acre

**Q.** What about the “Yield Increase Compared to Check” value (soybeans [1]; pre-planting 100 pounds/Acre) of the same compound?
**A.** 4.00%

**Q.** And the Yield (soybeans [1]; pre-planting 150 pounds/Acre)?
**A.** 70.57 Bushels/Acre

**Q.** What about the “Yield Increase Compared to Check” value (soybeans [1]; pre-planting 150 pounds/Acre) of the same compound?
**A.** 2.96%

**Q.** And the Yield (soybeans [1]; pre-planting 200 pounds/Acre)?
**A.** 68.33 Bushels/Acre

**Q.** What about the “Yield Increase Compared to Check” value (soybeans [1]; pre-planting 200 pounds/Acre) of the same compound?
**A.** −0.31%

**Q.** What about the Yield (soybeans [1]; pre-planting 250 pounds/Acre) of the same compound?
**A.** 72.14 Bushels/Acre

**Q.** What about the “Yield Increase Compared to Check” value (soybeans [1]; pre-planting 250 pounds/Acre) of the same compound?
**A.** 5.25%

**Q.** And the “number of treatments showing yield improvement compared to check treatment 31” value (soybeans [1]; [3])?
**A.** four of the six

**Q.** What about the Yield (soybeans [2]; pre-planting 25 pounds/Acre) of the same compound?
**A.** 61.90 Bushels/Acre

**Q.** What about the “Yield Increase Compared to Check Average” value (soybeans [2]; pre-planting 25 pounds/Acre) of the same compound?
**A.** 0.24%

**Q.** What about the Yield (soybeans [2]; pre-planting 50 pounds/Acre) of the same compound?
**A.** 61.87 Bushels/Acre

**Q.** What about the “Yield Increase Compared to Check Average” value (soybeans [2]; pre-planting 50 pounds/Acre) of the same compound?
**A.** 0.19%

**Q.** What about the Yield (soybeans [2]; pre-planting 100 pounds/Acre) of the same compound?
**A.** 59.52 Bushels/Acre

**Q.** What about the “Yield Increase Compared to Check Average” value (soybeans [2]; pre-planting 100 pounds/Acre) of the same compound?
**A.** −3.61%

**Q.** What about the Yield (soybeans [2]; pre-planting 150 pounds/Acre) of the same compound?
**A.** 59.71 Bushels/Acre

**Q.** What about the “Yield Increase Compared to Check Average” value (soybeans [2]; pre-planting 150 pounds/Acre) of the same compound?
**A.** −3.30%

**Q.** And the Yield (soybeans [2]; pre-planting 200 pounds/Acre)?
**A.** 61.36 Bushels/Acre

**Q.** What about the “Yield Increase Compared to Check Average” value (soybeans [2]; pre-planting 200 pounds/Acre) of the same compound?
**A.** −0.63%

**Q.** And the Yield (soybeans [2]; pre-planting 250 pounds/Acre)?
**A.** 61.03 Bushels/Acre

**Q.** What about the “Yield Increase Compared to Check Average” value (soybeans [2]; pre-planting 250 pounds/Acre) of the same compound?
**A.** −1.17%

**Q.** And the “number of treatments showing negative yield benefits compared to check average” value (soybeans [2]; six rates per sugar)?
**A.** four of the six

**Q.** What about the Yield (corn; pre-planting 25 pounds/Acre) of the same compound?
**A.** 264.82 Bushels/Acre

**Q.** What about the “Yield Increase Compared to Check Average” value (corn; pre-planting 25 pounds/Acre) of the same compound?
**A.** −0.35%

**Q.** What about the Yield (corn; pre-planting 50 pounds/Acre) of the same compound?
**A.** 274.43 Bushels/Acre

**Q.** And the “Yield Increase Compared to Check Average” value (corn; pre-planting 50 pounds/Acre)?
**A.** 3.26%

**Q.** And the Yield (corn; pre-planting 100 pounds/Acre)?
**A.** 264.79 Bushels/Acre

**Q.** And the “Yield Increase Compared to Check Average” value (corn; pre-planting 100 pounds/Acre)?
**A.** −0.36%

**Q.** And the Yield (corn; pre-planting 150 pounds/Acre)?
**A.** 270.66 Bushels/Acre

**Q.** What about the “Yield Increase Compared to Check Average” value (corn; pre-planting 150 pounds/Acre) of the same compound?
**A.** 1.84%

**Q.** And the Yield (corn; pre-planting 200 pounds/Acre)?
**A.** 271.85 Bushels/Acre

**Q.** And the “Yield Increase Compared to Check Average” value (corn; pre-planting 200 pounds/Acre)?
**A.** 2.29%

**Q.** And the Yield (corn; pre-planting 250 pounds/Acre)?
**A.** 263.78 Bushels/Acre

**Q.** What about the “Yield Increase Compared to Check Average” value (corn; pre-planting 250 pounds/Acre) of the same compound?
**A.** −0.75%

**Q.** And the “number of treatments showing yield improvement compared to check average” value (corn; [3])?
**A.** three of the six
